The text below walks through data of patent US10092588B2, “Foamable compositions, breakable foams and their uses” (Foamix Pharmaceuticals Ltd., priority 2009, dated 2018).

The nature of the series: Solubility of mometasone furoate in foam composition, visual inspection. Particulars: in the hydro-alcoholic foam formulation. The class given is physicochemical.

`C[C@@H]1C[C@H]2[C@@H]3CCC4=CC(=O)C=C[C@]4(C)[C@@]3(Cl)[C@@H](O)C[C@]2(C)[C@@]1(OC(=O)c1ccco1)C(=O)CCl` [Mometasone furoate]: the “Solubility of Mometasone Furoate” value is “soluble”.
